Columns and labels:
AChE = AChE (Homo sapiens, UniProt P22303); experiment: biochemical; details: read-out: AChE inhibition (%)
Aβ = Aβ (Homo sapiens, UniProt P05067); experiment: Aβ fibrillogenesis, Thioflavin-T; assay type: biochemical; details: for Aβ fibril inhibition (%): Aβ:inhibitor = 1:1 ratio at 100 μM Aβ concentration
BuChE = BuChE (Homo sapiens, UniProt P06276); experiment: Ellman assay, BuChE inhibition; assay type: biochemical; details: read-out: BuChE inhibition (%), tested at 10 μM concentration
Aβ-peptide = Aβ-peptide (Homo sapiens, UniProt P05067); experiment: High resolution mass spectrometry of inhibitor-Aβ complex formation; assay type: binding; details: Aβ-peptide-14 mixture (30 μM to 150 μM); 1:1 and 1:2 complexes observed
Aβ-peptide, sequence (P05067 672-711 limits assumed): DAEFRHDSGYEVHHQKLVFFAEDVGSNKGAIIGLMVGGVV

AChE, sequence (P22303 32-614): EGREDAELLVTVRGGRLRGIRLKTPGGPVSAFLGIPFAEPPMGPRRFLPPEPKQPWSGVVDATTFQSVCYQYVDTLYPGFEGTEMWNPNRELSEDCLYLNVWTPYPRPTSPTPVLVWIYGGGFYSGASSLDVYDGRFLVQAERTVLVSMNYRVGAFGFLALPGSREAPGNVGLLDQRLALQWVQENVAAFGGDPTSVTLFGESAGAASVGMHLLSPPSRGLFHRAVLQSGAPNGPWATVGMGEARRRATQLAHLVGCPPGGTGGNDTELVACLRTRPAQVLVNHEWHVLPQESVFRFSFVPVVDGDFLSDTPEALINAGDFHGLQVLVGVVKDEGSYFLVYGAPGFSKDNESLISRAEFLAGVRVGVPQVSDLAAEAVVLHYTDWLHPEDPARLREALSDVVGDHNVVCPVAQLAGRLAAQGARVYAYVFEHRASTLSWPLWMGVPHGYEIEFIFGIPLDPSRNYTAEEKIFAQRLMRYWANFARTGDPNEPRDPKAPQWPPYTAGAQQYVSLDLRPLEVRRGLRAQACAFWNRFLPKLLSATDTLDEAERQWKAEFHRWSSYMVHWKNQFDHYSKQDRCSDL
Aβ, sequence (P05067 672-711 limits assumed): as the sequence (P05067 672-711 limits assumed) above
BuChE, sequence (P06276 29-602): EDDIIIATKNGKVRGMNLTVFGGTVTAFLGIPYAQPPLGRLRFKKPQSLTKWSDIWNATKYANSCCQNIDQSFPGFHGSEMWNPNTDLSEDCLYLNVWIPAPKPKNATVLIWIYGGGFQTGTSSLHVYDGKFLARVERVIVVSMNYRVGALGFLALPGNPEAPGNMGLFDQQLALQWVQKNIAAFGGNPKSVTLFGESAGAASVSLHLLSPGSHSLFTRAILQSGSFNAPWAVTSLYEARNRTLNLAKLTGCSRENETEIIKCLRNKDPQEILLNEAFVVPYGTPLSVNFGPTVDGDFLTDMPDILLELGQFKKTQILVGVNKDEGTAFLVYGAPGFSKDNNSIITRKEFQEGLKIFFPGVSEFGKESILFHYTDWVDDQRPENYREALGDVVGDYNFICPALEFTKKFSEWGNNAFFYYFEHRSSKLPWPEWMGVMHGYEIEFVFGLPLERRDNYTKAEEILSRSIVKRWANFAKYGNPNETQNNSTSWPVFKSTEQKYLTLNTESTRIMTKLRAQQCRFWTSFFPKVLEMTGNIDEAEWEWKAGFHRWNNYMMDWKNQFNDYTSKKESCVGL

| SMILES | inhibition at 2 µM (AChE) | Aβ fibril inhibition (%) (Aβ) | inhibition at 10 µM (BuChE) | EC50 (Aβ) | Complex formation with Aβ peptide (HR-MS) (Aβ-peptide) |
| --- | --- | --- | --- | --- | --- |
| c1ccc(-c2nccc3c2[nH]c2ccccc23)cc1 [Compound 1] | -12% | – | – | – | – |
| COc1ccc2[nH]c3c(-c4ccc(C)cc4)nccc3c2c1 [Compound 4] | -15% | – | – | – | – |
| Fc1ccc(-c2nccc3c2[nH]c2ccccc23)cc1 [Compound 6] | – | 39% | > 80% | – | – |
| c1ccc2c(c1)[nH]c1c(C3CCCCC3)nccc12 [Compound 13] | – | −12% | – | – | – |
| c1ccc2c(-c3nccc4c3[nH]c3ccccc34)cccc2c1 [Compound 14] | -11% | – | > 80% | ~110 µM | forms a complex with the peptide |

Reference: article PMC5282889 (Bioorganic & medicinal chemistry letters, 2016)
